Columns and labels:
NEK7 [1] = molecular target: NEK7 (Homo sapiens, UniProt Q8TDX7); experiment: DARTS; format: cell-based
NEK7 [2] = molecular target: NEK7 (Mus musculus, UniProt Q9ES74); experiment: CETSA in BMDMs and DARTS in BMDM lysate; format: cell-based
NEK7 (Mus musculus, UniProt Q9ES74), sequence (Q9ES74 whole entry): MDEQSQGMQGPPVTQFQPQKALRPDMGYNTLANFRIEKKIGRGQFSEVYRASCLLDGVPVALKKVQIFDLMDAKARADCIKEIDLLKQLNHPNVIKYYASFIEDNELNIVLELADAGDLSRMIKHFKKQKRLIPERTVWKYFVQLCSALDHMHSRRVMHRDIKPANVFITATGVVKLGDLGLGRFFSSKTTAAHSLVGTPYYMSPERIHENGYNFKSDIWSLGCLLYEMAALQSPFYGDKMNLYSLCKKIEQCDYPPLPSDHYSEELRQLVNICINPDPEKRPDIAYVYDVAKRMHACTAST

NEK7 (Homo sapiens, UniProt Q8TDX7), sequence (Q8TDX7 whole entry, looked up): as the sequence (Q9ES74 whole entry) above, with T14P, S52A, D150E, I273M, I285V, A286T, T302S counted along it

With `CN1CCN(c2ccc(C(=O)Nc3n[nH]c4ccc(Cc5cc(F)cc(F)c5)cc34)c(NC3CCOCC3)c2)CC1` [ENB, entrectinib] the “DARTS (pronase) in lysate of HEK293T cells overexpressing WT or mutant NEK7 (200)” value (NEK7 [1]) was “R121A, but not I40A mutation, abolished NEK7 binding to ENB (Figure 4D), suggesting that ENB binds to R121 of NEK7” and the “CETSA in BMDMs and DARTS in BMDM lysate (200 uM ENB)” value (NEK7 [2]) was “ENB significantly enhanced the thermal stability of NEK7 even at higher temperatures compared with the DMSO-treated group”.

Source: PMC10772347 (Cell Reports Medicine, 2023)
